Results reported in PubChem BioAssay AID1259407 (Chemical Carcinogenesis Research Information System (CCRIS), 2018).
Calls of active or inactive are those of the source. No rule for the calls is given here.

Tested on: CCRIS mutagenicity, Ames/micronucleus/aberration tests
Experiment: CCRIS mutagenicity studies
[1] = Test System: AMES SALMONELLA TYPHIMURIUM, Strain/Indicator: TA98, Metabolic Activation: NONE, Method: STANDARD PLATE
[2] = Test System: AMES SALMONELLA TYPHIMURIUM, Strain/Indicator: TA98, Metabolic Activation: RAT, LIVER, S-9, AROCLOR 1254, Method: STANDARD PLATE
[3] = Test System: AMES SALMONELLA TYPHIMURIUM, Strain/Indicator: TA100, Metabolic Activation: NONE, Method: STANDARD PLATE
[4] = Test System: AMES SALMONELLA TYPHIMURIUM, Strain/Indicator: TA100, Metabolic Activation: RAT, LIVER, S-9, AROCLOR 1254, Method: STANDARD PLATE

Measured: mutagenic call

NCCNCCN
inactive: Test System: AMES SALMONELLA TYPHIMURIUM, Strain/Indicator: TA98, Metabolic Activation: HAMSTER, LIVER, S-9, AROCLOR 1254 (10%), Method: PREINCUBATION inactive; negative | Test System: AMES SALMONELLA TYPHIMURIUM, Strain/Indicator: TA98, Metabolic Activation: NONE, Method: PREINCUBATION inactive; negative | [1] inactive; negative | Test System: AMES SALMONELLA TYPHIMURIUM, Strain/Indicator: TA98, Metabolic Activation: RAT LIVER S-9, PHENOBARBITAL AND BETA-NAPHTHOFLAVONE, Method: PREINCUBATION inactive; negative | Test System: AMES SALMONELLA TYPHIMURIUM, Strain/Indicator: TA98, Metabolic Activation: RAT, LIVER, S-9, AROCLOR 1254 (10%), Method: PREINCUBATION inactive; negative | [2] inactive; negative | Test System: AMES SALMONELLA TYPHIMURIUM, Strain/Indicator: TA98, Metabolic Activation: RAT, LIVER, S-9, PCB, Method: PREINCUBATION inactive; negative | Test System: AMES SALMONELLA TYPHIMURIUM, Strain/Indicator: TA100, Metabolic Activation: HAMSTER, LIVER, S-9, AROCLOR 1254 (10%), Method: PREINCUBATION inactive; negative | Test System: AMES SALMONELLA TYPHIMURIUM, Strain/Indicator: TA100, Metabolic Activation: NONE, Method: PREINCUBATION inactive; negative | [3] inactive; negative | Test System: AMES SALMONELLA TYPHIMURIUM, Strain/Indicator: TA100, Metabolic Activation: RAT LIVER S-9, PHENOBARBITAL AND BETA-NAPHTHOFLAVONE, Method: PREINCUBATION inactive; negative | Test System: AMES SALMONELLA TYPHIMURIUM, Strain/Indicator: TA100, Metabolic Activation: RAT, LIVER, S-9, AROCLOR 1254 (10%), Method: PREINCUBATION inactive; negative | [4] inactive; negative | Test System: AMES SALMONELLA TYPHIMURIUM, Strain/Indicator: TA100, Metabolic Activation: RAT, LIVER, S-9, PCB, Method: PREINCUBATION inactive; negative | Test System: AMES SALMONELLA TYPHIMURIUM, Strain/Indicator: TA1535, Metabolic Activation: HAMSTER, LIVER, S-9, AROCLOR 1254 (10%), Method: PREINCUBATION inactive; negative | Test System: AMES SALMONELLA TYPHIMURIUM, Strain/Indicator: TA1535, Metabolic Activation: NONE, Method: PREINCUBATION inactive; negative | Test System: AMES SALMONELLA TYPHIMURIUM, Strain/Indicator: TA1535, Metabolic Activation: NONE, Method: STANDARD PLATE inactive; negative | Test System: AMES SALMONELLA TYPHIMURIUM, Strain/Indicator: TA1535, Metabolic Activation: RAT LIVER S-9, PHENOBARBITAL AND BETA-NAPHTHOFLAVONE, Method: PREINCUBATION inactive; negative | Test System: AMES SALMONELLA TYPHIMURIUM, Strain/Indicator: TA1535, Metabolic Activation: RAT, LIVER, S-9, AROCLOR 1254 (10%), Method: PREINCUBATION inactive; negative | Test System: AMES SALMONELLA TYPHIMURIUM, Strain/Indicator: TA1535, Metabolic Activation: RAT, LIVER, S-9, AROCLOR 1254, Method: STANDARD PLATE inactive; negative | Test System: AMES SALMONELLA TYPHIMURIUM, Strain/Indicator: TA1537, Metabolic Activation: HAMSTER, LIVER, S-9, AROCLOR 1254 (10%), Method: PREINCUBATION inactive; negative | Test System: AMES SALMONELLA TYPHIMURIUM, Strain/Indicator: TA1537, Metabolic Activation: NONE, Method: PREINCUBATION inactive; negative | Test System: AMES SALMONELLA TYPHIMURIUM, Strain/Indicator: TA1537, Metabolic Activation: NONE, Method: STANDARD PLATE inactive; negative | Test System: AMES SALMONELLA TYPHIMURIUM, Strain/Indicator: TA1537, Metabolic Activation: RAT LIVER S-9, PHENOBARBITAL AND BETA-NAPHTHOFLAVONE, Method: PREINCUBATION inactive; negative | Test System: AMES SALMONELLA TYPHIMURIUM, Strain/Indicator: TA1537, Metabolic Activation: RAT, LIVER, S-9, AROCLOR 1254 (10%), Method: PREINCUBATION inactive; negative | Test System: AMES SALMONELLA TYPHIMURIUM, Strain/Indicator: TA1537, Metabolic Activation: RAT, LIVER, S-9, AROCLOR 1254, Method: STANDARD PLATE inactive; negative | Test System: AMES SALMONELLA TYPHIMURIUM, Strain/Indicator: TA1538, Metabolic Activation: NONE, Method: STANDARD PLATE inactive; negative | Test System: AMES SALMONELLA TYPHIMURIUM, Strain/Indicator: TA1538, Metabolic Activation: RAT, LIVER, S-9, AROCLOR 1254, Method: STANDARD PLATE inactive; negative | Test System: CHINESE HAMSTER OVARY, Strain/Indicator: CHO (HGPRT)/6-THIOGUANINE, Metabolic Activation: NONE inactive; negative | Test System: CHINESE HAMSTER OVARY, Strain/Indicator: CHO (HGPRT)/6-THIOGUANINE, Metabolic Activation: RAT, LIVER, S-9, AROCLOR 1254 inactive; negative | Test System: E.COLI, Strain/Indicator: WP2UVRA/PKM101, Metabolic Activation: NONE, Method: PREINCUBATION inactive; negative | Test System: E.COLI, Strain/Indicator: WP2UVRA/PKM101, Metabolic Activation: RAT LIVER S-9, PHENOBARBITAL AND BETA-NAPHTHOFLAVONE, Method: PREINCUBATION inactive; negative | Test System: UDS RAT HEPATOCYTES, Strain/Indicator: THY INCORP, Metabolic Activation: NONE, Method: SCINTILLATION SPECTROMETRY inactive; negative

ClCC1C(CCl)[C@@]2(Cl)C(Cl)=C(Cl)[C@]1(Cl)C2(Cl)Cl (some centres undefined)
inactive: Test System: AMES SALMONELLA TYPHIMURIUM, Strain/Indicator: TA97, Metabolic Activation: NONE, Method: STANDARD PLATE inactive; negative | Test System: AMES SALMONELLA TYPHIMURIUM, Strain/Indicator: TA97, Metabolic Activation: RAT, LIVER, S-9, AROCLOR 1254, Method: STANDARD PLATE inactive; negative | [1] inactive; negative | [2] inactive; negative | [3] inactive; negative | [4] inactive; negative | Test System: AMES SALMONELLA TYPHIMURIUM, Strain/Indicator: TA102, Metabolic Activation: NONE, Method: STANDARD PLATE inactive; negative | Test System: AMES SALMONELLA TYPHIMURIUM, Strain/Indicator: TA102, Metabolic Activation: RAT, LIVER, S-9, AROCLOR 1254, Method: STANDARD PLATE inactive; negative

O=C1OCC(CCl)=C1Br
active: [3] active; positive

O=CNc1nc(-c2ccc([N+](=O)[O-])o2)cs1
active: [3] active; positive | Test System: AMES SALMONELLA TYPHIMURIUM, Strain/Indicator: TA100, Metabolic Activation: RAT, LIVER, S-9, KC500 OR PHENOBARBITAL, Method: LIQUID SUSPENSION active; positive | Test System: E. COLI, Strain/Indicator: WP2, Metabolic Activation: NONE, Method: SPOT active; positive | Test System: E. COLI, Strain/Indicator: WP2, Metabolic Activation: NONE, Method: STANDARD PLATE active; positive | Test System: E. COLI, Strain/Indicator: WP2 UVRA, Metabolic Activation: HAMSTER, LIVER, S-9, AROCLOR 1254, Method: STANDARD PLATE active; positive | Test System: E. COLI, Strain/Indicator: WP2 UVRA, Metabolic Activation: HAMSTER, LIVER, S-9, Method: STANDARD PLATE active; positive | Test System: E. COLI, Strain/Indicator: WP2 UVRA, Metabolic Activation: MOUSE, LIVER, S-9, AROCLOR 1254, Method: STANDARD PLATE active; positive | Test System: E. COLI, Strain/Indicator: WP2 UVRA, Metabolic Activation: MOUSE, LIVER, S-9, Method: STANDARD PLATE active; positive | Test System: E. COLI, Strain/Indicator: WP2 UVRA, Metabolic Activation: NONE, Method: SPOT active; positive | Test System: E. COLI, Strain/Indicator: WP2 UVRA, Metabolic Activation: NONE, Method: STANDARD PLATE active; positive | Test System: E. COLI, Strain/Indicator: WP2 UVRA, Metabolic Activation: RAT, LIVER, S-9, AROCLOR 1254, Method: STANDARD PLATE active; positive | Test System: E. COLI, Strain/Indicator: WP2 UVRA, Metabolic Activation: RAT, LIVER, S-9, Method: STANDARD PLATE active; positive
